# From patent publication US20260026499A1 (priority 2022, published 2026)
# Read-outs that look alike come from different tables or passages of the source.
# Legend:
# Assay type in all cases: cell-based
# Fusarium moniliforme = conditions: B = pyraclostrobin; for EC50: Fusarium verticillioides, mycelial growth, method of Example 17; for ATI: ZJS178 as standard reagent
# Method: (§1) The above-mentioned F. oxysporum f.sp. lycopersici was inoculated on a PDA medium, and 50 μg/mL salicylhydroxamic acid (SHAM) was added to the culture medium to inhibit the […] bypass respiration.
# Test object: Fusarium moniliforme preserved in a culture room of the laboratory. The bioassay method was referred to the description in Example 17.
# Fusarium fujikuroi [1] = test: microbe, parasite or virus in culture; conditions: for EC50: Fusarium fujikuroi, 72 h
# Fusarium graminearum [2] = test: microbe, parasite or virus in culture; conditions: for ATI: B = prochloraz; for EC50: Fusarium graminearum
# Fusarium fujikuroi [3] = conditions: B = fludioxonil; for EC50: Fusarium fujikuroi, 72 h, mycelial growth, PDA, 25° C., 3 days; for ATI: ZJS178 as standard reagent
# Source text: Test object: Fusarium fujikuroi preserved in a culture room of the laboratory.
# (§2) The bioassay method was referred to the description in Example 9.
# Fusarium oxysporum [4] = conditions: B = fludioxonil; for EC50: Fusarium oxysporum, 72 h, mycelial growth, PDA, 25° C., 3 days; for ATI: ZJS178 as standard reagent
# Source text: Test object: Fusarium oxysporum preserved in the laboratory.
# as §2
# Fusarium graminearum [5] = test: microbe, parasite or virus in culture; conditions: for EC50: Fusarium graminearum, 72 h; for ATI: ZJS178 as standard reagent, B = pydiflumetofen
# [6] = system: tebuconazole-sensitive Fusarium graminearum (TS); test: microbe, parasite or virus in culture; conditions: for EC50: Fusarium graminearum, 72 h; for Actual Toxicity Index (ATI): ZJS178 as standard reagent, TS strain
# [7] = system: metconazole-resistance Fusarium fujikuroi(MR); test: microbe, parasite or virus in culture
# [8] = system: F. oxysporum f.sp. niveum; conditions: for EC50: Fusarium oxysporum, 72 h
# [9] = system: F. oxysporum f.sp. lycopersici; conditions: B = azoxystrobin; for EC50: mycelial growth, PDA with 50 μg/mL SHAM, 25° C., 3 days; for ATI: ZJS178 as standard reagent
# Method: Test object: F. oxysporum f.sp. lycopersici isolated from diseased tomatoes from the field. The tested strains were identified by morphology and pathogenicity, and then stored in the laboratory for future use.
# as §1
# Fusarium oxysporum [10] = test: microbe, parasite or virus in culture
# Fusarium oxysporum [11] = test: microbe, parasite or virus in culture; conditions: for EC50: Fusarium oxysporum, 72 h
# [12] = system: metconazole-sensitive Fusarium fujikuroi(MS); test: microbe, parasite or virus in culture
smiles,measurement,setting,value
"COC(=O)N(OC)c1ccccc1COc1ccn(-c2ccc(Cl)cc2)n1 [Pyraclostrobin (B), methyl N-[2-[[1-(4-chlorophenyl)pyrazol-3-yl]oxymethyl]phenyl]-N-methoxycarbamate, reference compound]",EC50,Fusarium moniliforme,4.99 µg/mL
same,ATI,Fusarium moniliforme,13.61
"Cc1nn(C)c(F)c1C(=O)Nc1ccccc1C(C)CC(C)C (centres unmarked) [Penflufen (B), 5-fluoro-1,3-dimethyl-N-[2-(4-methylpentan-2-yl)phenyl]-1H-pyrazole-4-carboxamide, reference compound]",ATI,Fusarium fujikuroi [1],22.85
same,EC50,Fusarium fujikuroi [1],0.294 µg/mL
"CCCN(CCOc1c(Cl)cc(Cl)cc1Cl)C(=O)n1ccnc1 [Prochloraz (B), N-propyl-N-[2-(2,4,6-trichlorophenoxy)ethyl]-imidazole-1-carboxamide, reference compound]",ATI,Fusarium graminearum [2],11.88
same,EC50,Fusarium graminearum [2],0.319 µg/mL
"N#Cc1c[nH]cc1-c1cccc2c1OC(F)(F)O2 [Fludioxonil (B), 4-(2,2-difluoro-1,3-benzodioxol-4-yl) pyrrole-3-carbonitrile, reference compound]",EC50,Fusarium fujikuroi [3],0.0529 µg/mL
same,ATI,Fusarium fujikuroi [3],90.93
same,EC50,Fusarium oxysporum [4],0.0683 µg/mL
same,ATI,Fusarium oxysporum [4],128.55
"CCOC(=O)/C(C#N)=C(\N)c1ccc(N(C)CC)cc1 [ZJS178 (A), ethyl 2-cyano-3-amino-3-[4-(N-ethyl-N-methylamino)phenyl]acrylate]",ATI,Fusarium fujikuroi [1],100.00
same,EC50,Fusarium fujikuroi [1],0.0671 µg/mL
same,EC50,Fusarium graminearum [5],0.0379 µg/mL
same,ATI,Fusarium graminearum [5],100.00
same,ATI,Fusarium graminearum [2],100.00
same,EC50,Fusarium graminearum [2],0.0379 µg/mL
same,EC50,Fusarium fujikuroi [3],0.0481 µg/mL
same,ATI,Fusarium fujikuroi [3],100.00
same,EC50,[6],0.0385 µg/mL
same,Actual Toxicity Index (ATI),[6],100.00
same,EC50,"[7]; Fusarium fujikuroi, 72 h",0.0621 µg/mL
same,ATI,"[7]; ZJS178 as standard reagent, MR strain",100.00
same,EC50,[8],0.0569 µg/mL
same,Actual Toxicity Index,"[8]; ZJS178 as standard reagent, B = thiophanate-methyl",100.00
same,EC50,"[9]; Fusarium oxysporum, 72 h, read-out: EC50",0.0461 µg/mL
same,ATI,[9],100.00
same,ATI,Fusarium oxysporum [10],100.00
same,EC50,Fusarium oxysporum [10]; Fusarium oxysporum,0.0399 µg/mL
same,ATI,Fusarium oxysporum [11],100.00
same,EC50,Fusarium oxysporum [11],0.0399 µg/mL
same,ATI,[12],100.00
same,EC50,"[12]; Fusarium fujikuroi, 72 h",0.069 µg/mL
same,EC50,Fusarium moniliforme,0.678 µg/mL
same,ATI,Fusarium moniliforme,100.00
same,EC50,Fusarium oxysporum [4],0.0878 µg/mL
same,ATI,Fusarium oxysporum [4],100.00
"CON(C(=O)c1cn(C)nc1C(F)F)C(C)Cc1c(Cl)cc(Cl)cc1Cl (racemic) [Pydiflumetofen, 3-(difluoromethyl)-N-methoxy-1-methyl-N-[(RS)-1-methyl-2-(2,4,6-trichlorophenyl)ethyl]pyrazole-4-carboxamide, reference compound]",EC50,Fusarium graminearum [5],0.319 µg/mL
same,ATI,Fusarium graminearum [5],11.88
"CO/C=C(/C(=O)OC)c1ccccc1Oc1cc(Oc2ccccc2C#N)ncn1 [Azoxystrobin (B), (E)-methyl 2-{2-[6-(2-cyanophenoxy)pyrimidin-4-yloxy]phenyl}-3-strobilurin, reference compound]",ATI,[9],5.59
same,EC50,[9],0.8247 µg/mL
"COC(=O)NC(=S)Nc1ccccc1NC(=S)NC(=O)OC [Thiophanate-, 1,2-bis (3-carbomethoxy-2-thioureido)benzene, reference compound]",EC50,[8],0.222 µg/mL
"CCCN(CCOc1c(Cl)cc(Cl)cc1Cl)C(=O)n1ccnc1.CCCN(CCOc1c(Cl)cc(Cl)cc1Cl)C(=O)n1ccnc1.CCCN(CCOc1c(Cl)cc(Cl)cc1Cl)C(=O)n1ccnc1.CCCN(CCOc1c(Cl)cc(Cl)cc1Cl)C(=O)n1ccnc1.[Cl][Mn][Cl] [Prochloraz-manganese chloride, reference compound]",ATI,Fusarium oxysporum [10],14.46
same,EC50,Fusarium oxysporum [10],0.2758 µg/mL
"CC(C)(C)C(O)(CCc1ccc(Cl)cc1)Cn1cncn1 (racemic) [Tebuconazole (B), (RS)-1-p-chlorophenyl-4,4-dimethyl-3-(1H-1,2,4-triazol-1-ylmethyl)pentan-3-ol, reference compound]",EC50,[6],0.175 µg/mL
same,Actual Toxicity Index (ATI),[6],22.05
same,ATI,Fusarium oxysporum [11],14.46
same,EC50,Fusarium oxysporum [11],0.276 µg/mL
